Measurements as given in patent US20010033854A1, “Anti-microbial compositions” (priority 2000, published 2001).
Read-outs that look alike come from different tables or passages of the source.

Columns and labels:
[1] = test system: Staphlococcus epidermidis; assay: Growth inhibition of a relevant micro-organism by chelator; format: cell-based; settings: chelator at 3×10^−6 mol.dm^−3 or less
Description: Inhibition is considered significant when growth of the relevant micro-organism on a supporting medium can be reduced by at least 30% preferably by at least 45%.

relevant micro-organism = settings: cited from earlier work

Row | Compound | Significant inhibition of growth (reduced by at least 30%) [1] | other results
1 | O=C(O)CN(CCN(CC(=O)O)CC(=O)O)CCN(CC(=O)O)CC(=O)O [DTPA, diethylenetriaminepentaacetic acid] | capable of achieving significant inhibition | –
2 | CCO [ethanol] | – | MIC (relevant micro-organism; ethanol and similar alkanols): greater than 1 mg.ml^−1
3 | O=C(O)CN(CCN(CCN(CC(=O)O)CC(=O)O)CC(=O)O)CCN(CC(=O)O)CC(=O)O [TTHA, triethylenetetraaminehexaacetic acid] | capable of achieving significant inhibition | –
4 | CC(C)=CCCC(C)=CCCC(C)=CCO [farnesol, 3,7,11-trimethyldodeca-2,6,10-trienol] | – | MIC (relevant micro-organism; literature values): ca. 25 μg.ml^−1
5 | O=C(O)CN(CCN(CC(=O)O)CC(=O)O)CC(=O)O [EDTA, ethylenediaminetetraacetic acid] | exclude | –
6 | Oc1cc(Cl)ccc1Oc1ccc(Cl)cc1Cl [triclosan, 2′,4,4′-trichloro-2′-hydroxydiphenyl ether] | – | MIC (relevant micro-organism; literature values): 0.01 to 10 µg/mL
7 | O=C(O)CN(CC(=O)O)[C@@H]1CCCC[C@H]1N(CC(=O)O)CC(=O)O (relative stereo) [CDTA, trans-1,2-diaminocyclohexane-N,N,N′,N′-tetraacetic acid] | exclude | –
